Assay results published in ChEMBL document CHEMBL3045799, “Effect of Candidatus Liberibacter asiaticus infection on susceptibility of Asian citrus psyllid, Diaphorina citri, to selected insecticides” (2011).

Tests used:
Assay type in all cases: functional
[1] = tested on: Diaphorina citri; assay: Selectivity ratio of LC50 for Diaphorina citri to LC50 for Diaphorina citri infected with Candidatus Liberibacter asiaticus
[2] = tested on: Diaphorina citri; assay: Insecticidal activity against Diaphorina citri assessed as mortality after 48 hr
[3] = tested on: Diaphorina citri; assay: Insecticidal activity against Diaphorina citri infected with Candidatus Liberibacter asiaticus assessed as mortality after 48 hr

| Compound | RatioLC50 [1] | LC50 [2] [mgAi/L] | LC50 [3] [mgAi/L] |
| --- | --- | --- | --- |
| CCO[C@@H]1[C@@H](OC)[C@H](C)O[C@@H](O[C@@H]2C[C@H]3CC[C@@H]4[C@@H](C=C5C(=O)[C@H](C)[C@@H](O[C@H]6CC[C@H](N(C)C)[C@@H](C)O6)CCC[C@H](CC)OC(=O)C[C@H]54)[C@@H]3C2)[C@@H]1OC.CCO[C@@H]1[C@@H](OC)[C@H](C)O[C@@H](O[C@H]2C[C@H]3[C@@H]4C=C5C(=O)[C@H](C)[C@@H](O[C@H]6CC[C@H](N(C)C)[C@@H](C)O6)CCC[C@H](CC)OC(=O)C[C@H]5[C@@H]4C=C(C)[C@@H]3C2)[C@@H]1OC | 1.2 | 0.48 | 0.2 |
| CCOP(=S)(OCC)Oc1nc(Cl)c(Cl)cc1Cl [CHLORPYRIFOS] | 2.8 | 0.78 | 0.28 |
| CC1(C)C(C(=O)OC(C#N)c2cccc(Oc3ccccc3)c2)C1(C)C (configuration not stated) [FENPROPATHRIN] | 1.2 | 0.06 | 0.05 |
| O=[N+]([O-])/N=C1\NCCN1Cc1ccc(Cl)nc1 [IMIDACLOPRID] | 3.1 | 0.47 | 0.15 |
